From patent US20250002460A1, “SORTILIN INHIBITORS” (SORTINA PHARMA AB, priority 2021, published 2025) come the findings set out here.

One assay concerns the target T1, human sortilin (sSORT) (Homo sapiens, UniProt Q99523).
T1 sequence (Q99523 78-756 limits assumed): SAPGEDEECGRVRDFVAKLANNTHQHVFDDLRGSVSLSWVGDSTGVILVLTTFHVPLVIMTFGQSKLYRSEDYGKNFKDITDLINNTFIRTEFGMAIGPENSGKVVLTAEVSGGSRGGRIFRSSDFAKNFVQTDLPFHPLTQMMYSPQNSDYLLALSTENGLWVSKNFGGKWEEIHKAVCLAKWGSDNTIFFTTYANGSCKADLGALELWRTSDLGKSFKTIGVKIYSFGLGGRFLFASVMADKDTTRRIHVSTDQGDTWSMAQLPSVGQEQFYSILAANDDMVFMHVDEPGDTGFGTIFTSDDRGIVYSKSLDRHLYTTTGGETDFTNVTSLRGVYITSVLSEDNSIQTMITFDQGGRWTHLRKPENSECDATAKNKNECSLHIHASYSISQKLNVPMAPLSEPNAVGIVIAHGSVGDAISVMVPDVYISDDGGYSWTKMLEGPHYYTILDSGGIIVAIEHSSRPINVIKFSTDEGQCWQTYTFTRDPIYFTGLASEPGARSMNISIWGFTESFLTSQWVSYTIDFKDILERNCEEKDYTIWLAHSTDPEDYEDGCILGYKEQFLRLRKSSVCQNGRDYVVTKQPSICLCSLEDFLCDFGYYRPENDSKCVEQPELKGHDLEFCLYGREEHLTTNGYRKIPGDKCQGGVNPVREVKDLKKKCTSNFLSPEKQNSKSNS
Description: Neurotensin competitive fluorescence polarization binding assay (FPA). The following applies: mean IC50 values for sortilin inhibitors, IC50 (nM), 100 nM sSORT, 10 nM Neurotensin-Ahx-FITC, 1 h room temperature. For orientation: Fluorescence polarisation rises when a labelled molecule tumbles more slowly, as on binding a larger partner.
Description: Fresh 0.1% bovine serum albumin (BSA) was added to the assay buffer to obtain the final concentration: 50 mM HEPES, pH 7.4; 100 mM NaCl; 2.0 mM CaCl2; 0.1% BSA; 0.1% TWEEN® 20. The sortilin inhibitors of the invention and reference compounds (see Table 1) analyzed in the screen and neurotensin (used as an assay control) were serially diluted in ten different concentrations in assay buffer. In each well of a Nunc® MaxiSorp™ 384-well plate (Sigma Aldrich), 100 nM sSORT was mixed with pre-diluted sortilin inhibitors and 10 nM Neurotensin-Ahx-FITC in assay buffer adjusted to contain 1% DMSO in a final volume of 20 μl. The plate was then briefly centrifuged prior to 1 h incubation at room temperature in the dark.
By IC50 is commonly meant the concentration needed to halve the response being measured. `Cc1nc(N(C)C)ncc1C(=O)NC(/C=C/C(C)(C)C)C(=O)O` (single isomer, unassigned) [SI1 (active enantiomer), (E)-2-[2-(dimethylamino)-4-methyl-5-pyrimidinylcarbonylamino]-5,5-dimethyl-3-hexenoic acid] displayed an IC50 of 9 nM.
On the same count and under the same terms, as for `CC(C)(C)/C=C/C(NC(=O)c1cccc(-c2cccs2)c1)C(=O)O` (centres unmarked) [SI52, (E)-5,5-dimethyl-2-[m-(2-thienyl)benzoylamino]-3-hexenoic acid], the figure is 31 nM; as for `Cc1cc2[nH]c(C(=O)NC(/C=C/C(C)(C)C)C(=O)O)cc2cn1` (centres unmarked) [SI7, (E)-5,5-dimethyl-2-(6-methyl-1H-1,5-diazainden-2-ylcarbonylamino)-3-hexenoic acid], 89 nM.
Compound `CC(C)(C)/C=C/C(NC(=O)C1CN(c2ccncc2)CCN1)C(=O)O` (single isomer, unassigned) [SI4 diastereomer 1, (E)-5,5-dimethyl-2-[4-(4-pyridyl)-2-piperazinylcarbonylamino]-3-hexenoic acid] gave an IC50 of 229 nM.
`CC(C)(C)/C=C/C(NC(=O)c1cnc(Oc2ccccc2)nc1)C(=O)O` (centres unmarked) [SI44, (E)-5,5-dimethyl-2-(2-phenoxy-5-pyrimidinylcarbonylamino)-3-hexenoic acid] came in with a 50% inhibitory concentration (IC50) of 158 nM.
In the case of `Cn1nc(Cl)cc1C(=O)NC(/C=C/C(C)(C)C)C(=O)O` (centres unmarked) [SI57, (E)-2-(3-chloro-1-methyl-5-pyrazolylcarbonylamino)-5,5-dimethyl-3-hexenoic acid], the IC50 was determined as 45 nM.
`CC(C)(C)/C=C/C(NC(=O)c1cccc(-n2cnnc2)n1)C(=O)O` (centres unmarked) [SI50, (E)-5,5-dimethyl-2-[6-(4H-1,2,4-triazol-4-yl)-2-pyridylcarbonylamino]-3-hexenoic acid]: the IC50 was 668 nM.
`CC(C)(C)/C=C/C(NC(=O)C1CN(c2ccccn2)CCN1)C(=O)O` (single isomer, unassigned) [SI3 diastereomer 2, (E)-5,5-dimethyl-2-[4-(2-pyridyl)-2-piperazinylcarbonylamino]-3-hexenoic acid] yielded a concentration for half-maximal inhibition (IC50) of 339 nM.
Same read-out and setting: as for `CCn1nc(CC(C)C)cc1C(=O)NC(/C=C/C(C)(C)C)C(=O)O` (centres unmarked) [SI56, (E)-2-(1-ethyl-3-isobutyl-5-pyrazolylcarbonylamino)-5,5-dimethyl-3-hexenoic acid], the figure is 95 nM; as for `CC(C)(C)/C=C/C(NC(=O)c1ccc(Oc2ccc(Cl)cc2)cc1)C(=O)O` (centres unmarked) [SI53, (E)-2-[p-(p-chlorophenoxy)benzoylamino]-5,5-dimethyl-3-hexenoic acid], 148 nM; as for `CC(C)(C)/C=C/C(NC(=O)c1ccc(C(=O)C(F)(F)F)cc1)C(=O)O` (centres unmarked) [SI2, (E)-5,5-dimethyl-2-[p-(2,2,2-trifluoroacetyl)benzoylamino]-3-hexenoic acid], 234 nM.
The same measure, in the same setting: as for `CC(C)(C)CC[C@H](NC(=O)c1ccc(Oc2ccccc2)nc1)C(=O)O` [RC2 (active enantiomer), (S)-5,5-dimethyl-2-(6-phenoxynicotinoylamino)hexanoic acid, reference compound], the figure is 28 nM.
The compound `CC(C)Cc1cc(C(=O)NC(/C=C/C(C)(C)C)C(=O)O)n(C)n1` (centres unmarked) [SI9, (E)-2-(3-isobutyl-1-methyl-5-pyrazolylcarbonylamino)-5,5-dimethyl-3-hexenoic acid] returned an IC50 of 102 nM.
On the same count and under the same terms, the figure for `Cc1nc(N(C)C)ncc1C(=O)NC(CCC(C)(C)C)C(=O)O` (centres unmarked) [RC1, 2-[2-(dimethylamino)-4-methyl-5-pyrimidinylcarbonylamino]-5,5-dimethylhexanoic acid, reference compound] is 123 nM.
The compound `CC(C)(C)/C=C/C(NC(=O)C1CN(c2ccccn2)CCN1)C(=O)O` (single isomer, unassigned) [SI3 diastereomer 1, (E)-5,5-dimethyl-2-[4-(2-pyridyl)-2-piperazinylcarbonylamino]-3-hexenoic acid] yielded a 50% inhibitory concentration (IC50) of 135 nM.
As for `CC(C)(C)/C=C/C(NC(=O)c1cccc(-n2cnnc2)c1)C(=O)O` (centres unmarked) [SI6, (E)-5,5-dimethyl-2-[m-(4H-1,2,4-triazol-4-yl)benzoylamino]-3-hexenoic acid], the IC50 is 62 nM.
Consider `CC(C)(C)/C=C/C(NC(=O)c1cccc(-n2cncn2)c1)C(=O)O` (centres unmarked) [SI24, (E)-5,5-dimethyl-2-[m-(1H-1,2,4-triazol-1-yl)benzoylamino]-3-hexenoic acid], for which the IC50 is 52 nM.
As to `CC(C)(C)/C=C/C(NC(=O)c1cc(Br)c[nH]1)C(=O)O` (centres unmarked) [SI28, (E)-2-(4-bromo-2-pyrrolylcarbonylamino)-5,5-dimethyl-3-hexenoic acid], the IC50 came out at 55 nM.
As to `CC(C)(C)/C=C/C(NC(=O)C1CN(c2ccncc2)CCN1)C(=O)O` (single isomer, unassigned) [SI4 diastereomer 2, (E)-5,5-dimethyl-2-[4-(4-pyridyl)-2-piperazinylcarbonylamino]-3-hexenoic acid], the IC50 was 912 nM.
`Cn1cc(Cl)cc1C(=O)NC(/C=C/C(C)(C)C)C(=O)O` (centres unmarked) [SI31, (E)-2-(4-chloro-1-methyl-2-pyrrolylcarbonylamino)-5,5-dimethyl-3-hexenoic acid] returned an IC50 of 71 nM.
Consider `Cn1nc(-c2cccnc2)cc1C(=O)NC(/C=C/C(C)(C)C)C(=O)O` (centres unmarked) [SI59, (E)-5,5-dimethyl-2-[1-methyl-3-(3-pyridyl)-5-pyrazolylcarbonylamino]-3-hexenoic acid], for which the 50% inhibitory concentration (IC50) is 316 nM.
Consider `CN(C)c1ncc(C(=O)NC(/C=C/C(C)(C)C)C(=O)O)cn1` (centres unmarked) [SI17, (E)-2-[2-(dimethylamino)-5-pyrimidinylcarbonylamino]-5,5-dimethyl-3-hexenoic acid], for which the IC50 was determined as 149 nM.
Still for that read-out and setting: the figure for `Cn1nc(C(=O)NC(/C=C/C(C)(C)C)C(=O)O)cc1-c1ccc(Cl)c(Cl)c1` (centres unmarked) [SI61, (E)-2-[5-(3,4-dichlorophenyl)-1-methyl-3-pyrazolylcarbonylamino]-5,5-dimethyl-3-hexenoic acid] is 117 nM; for `CC(C)(C)/C=C/C(NC(=O)c1ccc(Oc2cccc(Cl)c2)cc1)C(=O)O` (centres unmarked) [SI54, (E)-2-[p-(m-chlorophenoxy)benzoylamino]-5,5-dimethyl-3-hexenoic acid] it is 158 nM; for `CC(C)(C)/C=C/C(NC(=O)c1ccc(COc2ccccc2)cc1)C(=O)O` (centres unmarked) [SI55, (E)-5,5-dimethyl-2-[p-(phenoxymethyl)benzoylamino]-3-hexenoic acid] it is 116 nM.
Compound `CC(C)(C)/C=C/C(NC(=O)c1ccc(Cl)[nH]1)C(=O)O` (centres unmarked) [SI29, (E)-2-(5-chloro-2-pyrrolylcarbonylamino)-5,5-dimethyl-3-hexenoic acid] came in with an IC50 of 80 nM.
In the case of `CC(C)(C)/C=C/C(NC(=O)c1ccc(Oc2ccccc2)nc1)C(=O)O` (single isomer, unassigned) [SI (active enantiomer), (E)-5,5-dimethyl-2-(6-phenoxynicotinoylamino)-3-hexenoic acid], the IC50 amounted to 5 nM.
For `CC(C)(C)/C=C/C(NC(=O)c1ccc(Oc2cccnc2)cc1)C(=O)O` (centres unmarked) [SI34, (E)-5,5-dimethyl-2-[p-(3-pyridyloxy)benzoylamino]-3-hexenoic acid], the IC50 came to 56 nM.
`CC(C)(C)/C=C/C(NC(=O)c1ccc(-n2cnnc2)cc1)C(=O)O` (centres unmarked) [SI23, (E)-5,5-dimethyl-2-[p-(4H-1,2,4-triazol-4-yl)benzoylamino]-3-hexenoic acid] yielded an IC50 of 158 nM.
Consider `Cc1cc(C(=O)NC(/C=C/C(C)(C)C)C(=O)O)nc(N(C)C)n1` (centres unmarked) [SI20, (E)-2-[2-(dimethylamino)-6-methyl-4-pyrimidinylcarbonylamino]-5,5-dimethyl-3-hexenoic acid], for which the half-inhibitory concentration (IC50) worked out at 1000 nM.
Regarding `CN(C)c1nccc(C(=O)NC(/C=C/C(C)(C)C)C(=O)O)n1` (centres unmarked) [SI19, (E)-2-[2-(dimethylamino)-4-pyrimidinylcarbonylamino]-5,5-dimethyl-3-hexenoic acid], the IC50 turned out to be 851 nM.

The assay is the same for the next values; noted with them: read-out: mean IC50 values for sortilin inhibitors, IC50; 100 nM sSORT, 10 nM Neurotensin-Ahx-FITC, 1 h room temperature.
For “(E)-2-(2-isopropyl-4-methyl-5-pyrimidinylcarbonylamino)-5,5-dimethyl-3-hexenoic acid [SI49]”, the half-inhibitory concentration (IC50) is 68 nM.
